# Experimental data taken from ChEMBL document CHEMBL4831527, “Structure-Based Design and Discovery of Pyridyl-Bearing Fused Bicyclic HIV-1 Inhibitors: Synthesis, Biological Characterization, and Molecular Modeling Studies” (J Med Chem, 2021).
# pEC50, pIC50: −log10 of the molar value. Calls of active or inactive are those of the source. No cut-off for these calls is given here.
# What was measured:
# [1] = target: Human immunodeficiency virus type 1 reverse transcriptase (Human immunodeficiency virus 1, UniProt Q72547); test: Inhibition of wild type HIV1 p66/p51 reverse transcriptase using poly(rA) as template, oligo(dT)16 as primer and RNA/DNA as substrate measured after 40 mins by PICOGreen-dye based spectrofluorimetry analysis
# [2] = Selectivity index, ratio of CC50 for mock-infected human MT4 cells to EC50 for HIV1 3B infected in human MT4 cells; type: toxicity, cell-based; details: MT4 cells (mock-infected and HIV1 3B infected), read-out: Ratio CC50/EC50
# [3] = tested on: Human immunodeficiency virus 1; test: Potency index, ratio of ETR EC50 to test compound EC50 for antiviral activity against HIV1 harboring reverse transcriptase E138K mutant infected in human MT4 cells; type: functional
# [4] = tested on: Human immunodeficiency virus 1; test: Antiviral activity against HIV1 RES056 infected in human MT4 cells assessed as protection against virus-induced cytopathic effect incubated for 5 days by MTT assay; type: functional, organism-based; details: Human immunodeficiency virus 1, RES056, MT4, 120 h
# [5] = tested on: Human immunodeficiency virus 2; test: Antiviral activity against HIV2 ROD infected in human MT4 cells assessed as protection against virus-induced cytopathogenicity after 5 days by MTT assay; type: functional, organism-based; details: time 5.0 day
# [6] = Cytotoxicity against mock-infected human MT4 cells assessed as reduction in cell viability measured after 5 days by MTT assay; type: cell-based; details: time 5 day
# [7] = tested on: Human immunodeficiency virus 1; test: Antiviral activity against HIV1 3B infected in human MT4 cells assessed as protection against virus-induced cytopathic effect incubated for 5 days by MTT assay; type: functional, organism-based; details: Human immunodeficiency virus 1, 3B, MT4, 120 h
# [8] = tested on: Human immunodeficiency virus 1; test: Antiviral activity against HIV1 harboring reverse transcriptase F227L/V106A double mutant infected in human MT4 cells assessed as protection against virus-induced cytopathic effect incubated for 5 days by MTT assay; type: functional, organism-based; details: Human immunodeficiency virus 1, MT4, 120 h
# [9] = Selectivity index, ratio of CC50 for mock-infected human MT4 cells to EC50 for HIV1 RES056 infected in human MT4 cells; type: toxicity, cell-based; details: MT4 cells (mock-infected and HIV1 RES056 infected), read-out: Ratio CC50/EC50
# [10] = tested on: Human immunodeficiency virus 1; test: Antiviral activity against HIV1 harboring reverse transcriptase Y181C mutant infected in human MT4 cells assessed as protection against virus-induced cytopathic effect incubated for 5 days by MTT assay; type: functional, organism-based; details: Human immunodeficiency virus 1, MT4, 120 h
# [11] = tested on: Human immunodeficiency virus 1; test: Antiviral activity against HIV1 harboring reverse transcriptase Y188L mutant infected in human MT4 cells assessed as protection against virus-induced cytopathic effect incubated for 5 days by MTT assay; type: functional, organism-based; details: Human immunodeficiency virus 1, MT4, 120 h
# [12] = tested on: Human immunodeficiency virus 1; test: Antiviral activity against HIV1 harboring reverse transcriptase L100I mutant infected in human MT4 cells assessed as protection against virus-induced cytopathic effect incubated for 5 days by MTT assay; type: functional, organism-based; details: Human immunodeficiency virus 1, MT4, 120 h
# in vitro = details: human, liver microsomes
# [13] = Half life in human liver microsomes at 1 uM in presence of NADPH by LC-MS/MS analysis; type: ADME, Microsome
# [14] = tested on: Human immunodeficiency virus 1; test: Antiviral activity against HIV1 harboring reverse transcriptase E138K mutant infected in human MT4 cells assessed as protection against virus-induced cytopathic effect incubated for 5 days by MTT assay; type: functional, organism-based; details: Human immunodeficiency virus 1, MT4, 120 h
# [15] = tested on: Human immunodeficiency virus 1; test: Antiviral activity against HIV1 harboring reverse transcriptase K103N mutant infected in human MT4 cells assessed as protection against virus-induced cytopathic effect incubated for 5 days by MTT assay; type: functional, organism-based; details: Human immunodeficiency virus 1, MT4, 120 h
smiles,measurement,setting,value
Cc1cc(C#N)cc(C)c1Oc1nc(Nc2ccc(C#N)cc2)nc2c1ccn2CC(=O)N1CCOCC1,pIC50,[1],6.81
same,selectivity ratio,[2],297
same,Ratio EC50,[3],2.2
same,pEC50,[4],6.11
same,Activity,[5],inactive
same,CC50 at 120 h,[6],2.3 µM
same,pEC50,[7],8.11
same,pEC50,[8],6.84
same,selectivity ratio,[9],3
same,pEC50,[10],6.83
same,pEC50,[11],7.25
same,pEC50,[12],6.81
same,"CLint scaled at 1 h, 1 µM",in vitro,397 mL/min/kg
same,half-life at 1 µM,[13],3.1 min
same,pEC50,[14],8.17
same,pEC50,[15],8.23
